Series [1] relates to immortalized lung fibroblast cell line VA13 (WI38 subline 2RA). In words: MTT cytotoxicity assay, VA13. It counts as cell-based. The settings on record: Homo sapiens, VA-13; 64 h treatment, MTT; read-out: IC50, nM VA13. An excerpt: (§1) The obtained series of verubulin analogues 2a–r (which also included three by-products isolated in the reactions according to Scheme 2) were initially evaluated for cytotoxicity against commonly used human breast cancer cell line MCF7′ (fast-growth subclone), human lung epithelial carcinoma cell line A549 and etiologically non-cancer immortalized lung fibroblast cell line VA13 (WI38 subline 2RA). Cytotoxicity against immortalized human embryonic kidney cell line HEK293T, characterized by a high growth rate, was also studied regarding cytotoxicity against non-cancerous fast-growth cells. A standard MTT assay was performed; verubulin (1) served as a positive reference. The data obtained are presented in Table 1 (for dose–response curves, see Supplementary Materials).
(§2) Human breast cancer cell line MCF7′ and human lung adenocarcinoma cell line A549 were kindly provided by Dr. S. Dmitriev (Lomonosov Moscow State University), immortalized human fibroblast cell line VA13 (WI38 subline 2RA) was kindly provided by Dr. M. Rubtsova (Lomonosov Moscow State University), human embryonic kidney HEK293T cell line was kindly provided by Dr. E. Knyazhanskaya (Lomonosov Moscow State University). MCF7′, VA13, A549 and HEK293T cell lines were maintained in DMEM/F-12 (Thermo Fisher Scientific, Waltham, MA, USA) culture medium containing 10% fetal bovine serum (Thermo Fisher Scientific, Waltham, MA, USA) and 50 μg/mL penicillin and 0.05 mg/mL streptomycin at 37 °C (Thermo Fisher Scientific, Waltham, MA, USA) in 5% CO2. Cells were maintained at 37 °C in a humidified MCO-18AC incubator (Sanyo, Tokyo, Japan) supplied with 5% CO2. Cell cultures were tested for the absence of mycoplasma and validated by STR.
(§3) The cytotoxicity of the substances was tested using the 3-(4,5-dimethylthiazol-2-yl)2,5-diphenyl tetrazolium bromide (MTT) assay with some modifications. A total of 2500 cells per well for the MCF7′, HEK293T, A549 cell lines or 4000 cells per well for the VA-13 cell line were plated out in 135 μL of DMEM-F12 media (Gibco, Thermo Fisher Scientific, Waltham, MA, USA) in a 96-well plate and incubated in the 5% CO2 incubator for the first 20 h without treatment. Then, 15.8 μL of media–DMSO solutions of tested substances (final DMSO concentrations in the media were 0.5% or less) was added to the cells (triplicate each) and cells were treated for 64 h with 0.023 mg/L–50 mg/L (eight dilutions) of compounds 2f,n,o,r; 1.14 μg/L–2.5 mg/L (eight dilutions) of compounds 2a,b,d,g,h,k,l,p,q; 57.2 ng/L–125 μg/L (eight dilutions) of compounds 2e,i,j; 22.9 ng/L–50 μg/L (eight dilutions) of compounds 1,2c,m. Doxorubicin was used as a control substance. Then, the MTT reagent (Paneco LLC, Moscow, Russia) was added to cells up to a final concentration of 0.5 g/L (10 × stock solution in PBS was used) and incubated for 2 h at 37 °C in the incubator, under an atmosphere of 5% CO2. Then, the MTT solution was discarded, and 140 μL of DMSO (PharmaMed LLC, Moscow, Russia) was added. The plates were swayed on a shaker (120 rpm) to dissolve the formazan. The absorbance was measured using a microplate reader (VICTOR X5 Light Plate Reader, PerkinElmer, Waltham, MA, USA) at a wavelength of 555 nm (in order to measure formazan concentration). The results were used to construct dose–response graphs and to estimate IC50 values (IC50 is the concentration resulting in half of the maximal cytotoxic effect) with GraphPad Prism V, GraphPadSoftware, Inc., San Diego, CA, USA.
(In general: Tetrazolium dyes change colour on reduction, which living cells bring about.)

The subject of series [2] is human breast cancer cell line MCF7′. In words: MTT cytotoxicity assay, MCF7′. It counts as cell-based. The following applies: MCF7, 64 h treatment, MTT, read-out: IC50, nM MCF7′.
Text: as §1, §2, §3

Another series concerns HCT116 cells. The experiment in a line: Apoptosis induction, Annexin V / 7-AAD flow cytometry. It counts as cell-based, human. The procedure:
Apoptosis is an important and active regulatory pathway of cell growth and proliferation. Annexin V is a calcium-dependent phospholipid-binding protein with a high affinity for phosphatidylserine (PS), a membrane component normally localized to the internal face of the cell membrane. Early in the apoptotic pathway, molecules of PS are translocated to the outer surface of the cell membrane where Annexin V can readily bind them.
After incubation, the cells were harvested by trypsinization, precipitated by centrifugation (3000 rpm), washed with cold PBS and recentrifuged. Aliquots of cells were processed as recommended in the Muse Annexin V& Dead Cell Kit (Luminex Corporation, Austin, TX, USA). The results were recorded on a Muse Cell Analyzer flow cytometer (Merck, Rahway, NJ, USA).
(In general: A flow cytometer gives signals particle by particle.)

Another series has as its system HCT116 cell line. In words: MTT cytotoxicity towards HCT116. It counts as cell-based, human. The settings on record: HCT-116; HCT116, human colon carcinoma; read-out: IC50.
In series [3] the test system is microtubules in carcinoma A549 cells. The experiment in a line: Immunofluorescent microscopy of microtubules. It counts as cell-based, human. The settings on record: 24 h, A549. The procedure: Since verubulin is known to stimulate microtubule disassociation, we performed an immunofluorescent microscopy study to determine the response of microtubule dynamics in carcinoma A549 cells to the treatment with representative compounds 2b,c,e. […] Aberrant cell morphology—contraction and rounding (Figure 2A,B) or contraction and elongation (Figure 2C)—was also observed.
A549 cells were seeded on coverslips (treated with poly-l-lysine at a concentration of 33 mg/L for an hour). Compounds were added up to the corresponding concentration after 24 h attachment and growth of the cells. Then, cells were incubated 24 h.
The cells were fixed with methanol (precooled in liquid nitrogen for 20 min), no additional permeabilization was performed. To prevent non-specific binding, cells were incubated with 4% BSA in PBS for one hour. Then, a solution of mouse monoclonal antibodies against alpha-tubulin cross-linked with Alexa 488 fluoroform (Thermo Fisher Scientific, Waltham, MA, USA, 32-2588) at a concentration of 5 μg/mL in 1% BSA solution in PBS was added to the cells, and the slides were incubated at +5 °C in a water chamber for 24 h. After the end of the incubation time, the cells were washed several times with PBS buffer solution and fixed on a glass slide with Moviol. Next day, cells were imaged with a ZEISS LSM 900 (ZEISS Microscopy, GmbH, Germany) and images processed with ImageJ.

On to `COc1ccc(N(C)c2nc(C)nc3c2CCCC3)cc1` [Compound 2c, N-(4-methoxyphenyl)-N,2-dimethyl-5,6,7,8-tetrahydroquinazolin-4-amine], for which the results for the IC50 (in series [1]; in series [2]; with HCT116 cell line) were 1.6 ± 0.4 nM, 3.6 ± 0.4 nM and 0.2 ± 0.01 nM, respectively. Besides, in the series on HCT116 cells (2 × IC50, 48 h, HCT116), the “apoptotic cells, early plus late” value turned out to be 30%. Besides, the “Live (viable cells)” value in the series with HCT116 cells (human, 48 h) was 69.45%. Moreover, the “effect on microtubules (MTs)” value in series [3] (10 μM) is “full depolymerization of MTs”. In series [3] (5–10 μM), the effect on microtubules entry is on record as “pronounced or complete disruption of microtubules”.

Broadly, the IC50 is the concentration at which inhibition is half-maximal.

The values are drawn from paper PMC10610134, “Verubulin (Azixa) Analogues with Increased Saturation: Synthesis, SAR and Encapsulation in Biocompatible Nanocontainers Based on Ca^2+ or Mg^2+ Cross-Linked Alginate” (Pharmaceuticals, 2023).
